Measured values taken from ChEMBL document CHEMBL3785092, “Synthesis and biological evaluation of novel tetrahydroisoquinoline-C-aryl glucosides as SGLT2 inhibitors for the treatment of type 2 diabetes” (Eur J Med Chem, 2016).

Molecular target: T1, Sodium/glucose cotransporter 2 (Homo sapiens) (UniProt P31639)
T1 sequence (whole entry): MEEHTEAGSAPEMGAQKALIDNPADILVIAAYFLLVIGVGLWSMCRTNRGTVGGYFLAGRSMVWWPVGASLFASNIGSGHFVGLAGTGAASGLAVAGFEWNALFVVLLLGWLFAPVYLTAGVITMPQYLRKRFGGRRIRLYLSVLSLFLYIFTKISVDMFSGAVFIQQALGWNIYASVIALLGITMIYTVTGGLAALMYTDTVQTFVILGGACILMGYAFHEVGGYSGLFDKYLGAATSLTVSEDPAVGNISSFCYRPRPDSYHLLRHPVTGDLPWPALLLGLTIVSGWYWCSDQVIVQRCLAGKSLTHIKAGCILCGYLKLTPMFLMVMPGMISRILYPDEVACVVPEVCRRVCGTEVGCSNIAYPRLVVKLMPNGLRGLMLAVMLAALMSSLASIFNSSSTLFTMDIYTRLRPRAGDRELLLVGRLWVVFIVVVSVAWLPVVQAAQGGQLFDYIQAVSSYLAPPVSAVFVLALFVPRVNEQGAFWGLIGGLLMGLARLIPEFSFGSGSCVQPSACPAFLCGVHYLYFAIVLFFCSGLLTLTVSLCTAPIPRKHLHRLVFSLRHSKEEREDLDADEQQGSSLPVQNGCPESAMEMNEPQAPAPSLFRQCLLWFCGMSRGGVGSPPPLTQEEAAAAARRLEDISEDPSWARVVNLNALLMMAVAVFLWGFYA
Assay: Inhibition of human SGLT2 expressed in CHO cells assessed as reduction in [14C]AMG uptake at 10 uM after 1 hr by liquid scintillation counting method relative to control
Type: cell-based

Structure (SMILES)	inhibition [%]
OC[C@H]1O[C@@H](c2ccc3c(c2)[C@H](c2ccc4c(c2)OCO4)NCC3)[C@H](O)[C@@H](O)[C@@H]1O	49.7
COc1ccc(C[C@@H]2NCCc3ccc([C@@H]4O[C@H](CO)[C@@H](O)[C@H](O)[C@H]4O)cc32)cc1	32.1
CCOc1ccc(Cc2cc([C@@H]3O[C@H](CO)[C@@H](O)[C@H](O)[C@H]3O)ccc2Cl)cc1	85.4
